Where a SMILES comes first, the peptide text is derived from it. The star is where a group is joined. Cbz = O=C(OCc1ccccc1)*
What was measured:
TC-1 = test: MTS cell proliferation assay with FS lignans: TC-1; assay type: cell-based; details: 10 μM for 16 hours
Procedure: (§1) FIG. 37: FS lignans EL and ED, and their precursor SDG, inhibit cell proliferation in tumor cell lines. Tumor cell lines (LKR, TC-1, and LLC) were incubated with 10 μM or 25 μM of SDG, EL, or ED for 16 hours and processed for MTS assay to measure cell proliferation. The % inhibition of cell growth compared to untreated (no lignan) cell lines was calculated. Bars represent means±SEM. n=3 readings per group.
(§2) Cell proliferation was assessed at this time (time 0), and 24 and 48 hours later.

LKR = test: MTS cell proliferation assay with FS lignans: LKR; assay type: cell-based; details: 10 μM for 16 hours
Procedure: as §1, §2

LLC = test: MTS cell proliferation assay with FS lignans: LLC; assay type: cell-based; details: 10 μM for 16 hours
Procedure: as §1, §2

[1] = Lignan content in murine plasma (LC/MS/MS); assay type: in vivo, mice; details: oral, 10 % FS (flaxseed) in diet, FS-fed (10% FS) mouse groups, 4 months post-irradiation, read-out: circulating plasma level
Procedure: Circulating plasma levels of the flaxseed lignans ED and EL at time of sacrifice (4 months' post-XRT) were determined by liquid chromatography tandem mass spectrometry (LC/MS/MS) using commercially available standards in 95% purity (Chromadex, Inc., Santa Ana, Calif.) shown in FIG. 39. Plasma flaxseed lignan levels were evaluated in 3 randomly selected mice per group (irradiated mice; diet initiated at −3, 0, +2, +4, +6 weeks of radiation exposure).
Detection of flaxseed metabolites in the circulation using analytical methods was used to confirm that mice were feeding on the flaxseed-supplemented diet to reach physiologically relevant levels. Mice were maintained on control (0% FS) or treatment (10% FS) diets given ad libitum for either three weeks prior to XRT and for the entire duration of the experiment (4 months), or started on the day of XRT or 2,4,6 weeks post XRT and continued for 4 months (see scheme on FIG. 38). Plasma evaluation for lignan detection was done at 16 weeks post XRT.

PMVEC = test: tBHQ-induced cell death of PMVEC (LDH release); assay type: cell-based, mouse; details: pretreatment 50 μM; 10 μM tBHQ
Procedure: Given the in vivo data hereinabove, showing protection of lungs from oxidative injury after flaxseed feeding, a confirmation of similar protection of cells in vitro was desired. Relatively high doses of the electrophile tert-butylhydroquinone (tBHQ) were used to oxidatively stress the cells. […] However, pretreatment of cells with 50 µM of the lignan Enterolactone (EL) was sufficient to protect cells up to 50% from tert-butylhydroquinone (tBHQ)-induced cell death (FIG. 19).

proteasomal activity = test: Proteasomal inhibition in GFPu-1 cells (anti-GFP immunoblotting); assay type: cell-based, human; details: for amount of proteasomal inhibition as compared to Lactacystin and MG 132 / proteasomal inhibition compared to untreated cells (GFP expression): 16 hours; for proteasomal inhibition compared to untreated cells (GFP expression): EL 1 μM to 100 μM
Procedure: FIG. 36: Proteasomal inhibition with EL and ED as compared to known pharmacologic inhibitors Lactacystin and MG 132. GFPu-1 kidney epithelial cells were treated for 16 hours with EL and ED at differing concentrations. Proteasomal inhibition was detected by Western blotting using anti-GFP antibody with increased proteasomal inhibition expressed as accumulation of GFP. Representative Western blots are shown with β actin reference (Top panels). Densitometry was performed with β actin normalization, expressed as fold over untreated control±SEM, n=2-6 (Bottom panel). Dotted line represents control expression of GFP. *p<0.005 vs. untreated, **p<0.01 vs. untreated.
GFP^u-1 cells were used to investigate the impact of one of the flaxseed lignans, enterodiole (ED) on proteasomal activity. GFP^u-1 is an human kidney epithelial (HEK)-derived, stably transfected cell line expressing a short degron (CL1) tagged to green fluorescent protein (GFP) as described […].
Using an in vitro means of quantifying proteasomal inhibition with GFPu-1 cells, differing concentrations of the FS lignans EL and ED were compared with known pharmacologic proteasomal inhibitors MG 132 and Lactacystin, incubated for 16 hours prior to processing. Western blotting was performed on whole […] cell lysates using anti-GFP antibodies to quantify the amount of GFP expressed as a marker of the amount of proteasomal inhibition (FIG. 36, Top panels).

[2] = test system: streptozotosin-induced Diabetes mellitus; details: SDG-treated animals; cited from earlier work
LKR cells = test: MTS cell proliferation assay with proteasomal inhibitor; assay type: cell-based, mouse; details: one day post incubation
Procedure: FIG. 35: Cancer cell proliferation is inhibited by a known pharmacological proteasome inhibitor. LKR cells were incubated with MG 132, a known pharmacological proteasomal inhibitor and cell proliferation was measured using the MTS assay at one day post incubation. There was a dose dependent decrease in cell proliferation with increasing doses of MG 132.
LKR cells derived from an explant of a pulmonary tumor from an activated K-rasG12D mutant mouse were incubated with differing concentrations of MG 132, a known pharmacological proteasomal inhibitor to assess for cell proliferation using the MTS assay.

Nrf2 = test: Nuclear Nrf2 levels in PMVEC; assay type: cell-based, mouse; details: 10 μM
From the text: Nrf2 was detected with our own rabbit polyclonal Antibody (Clone MCS-1a).

HO-1 = HO-1 immunoblotting in pulmonary microvascular endothelial cells (PMVEC); assay type: cell-based, mouse; details: 10 μM; 1,2,4,6,8 and 10 hours
Procedure: For mechanistic studies, there is a need to establish whether purified lignans (in appropriate, “pharmacologically achievable” concentrations) have similar effects in cell culture as lignan complex diets have in animals. HO-1 levels were thus evaluated by immunoblotting in primary cultures of pulmonary microvascular endothelial cells (PMVEC) isolated from mouse lungs. PMVEC were incubated with the lignan enterodiole (ED) in micromolar concentrations (10 µM) similar to that seen in mouse plasma levels. Cells were incubated with ED for 1,2,4,6,8 and 10 hours.

ROS generation in PMVEC = test: ROS generation (H2DCF) by PMVEC in simulated I/R flow chamber; assay type: cell-based, mouse; details: 5 μM for 5 h prior to I/R
Procedure: Mouse pulmonary endothelial cells (PMVEC) were grown on coverslips and placed in a Warner chamber and perfused with culture medium for 24 h at a flow rate of 10 dyn/cm^2. Cells were incubated with the Lignan ED (5 μM) for 5 h prior to I/R loaded with H2DCF to monitor ROS immediately before the experiment. I/R in this chamber is simulated by abrupt cessation of perfusate flow and its reinstatement through the chamber 5 minutes later. The images are in pseudocolor with intensity shown on the side bar.

[3] = test system: alveolar epithelial cells (A549); test: H2O2-induced cell death of alveolar epithelial cells (LDH release); assay type: cell-based; details: 10, 50, 100, 200, 500 uM; 10 mM H2O2 for 1-6 hours
Procedure: In addition, using the same assay system to detect cell death, LDH release, an evaluation of the efficacy of the lignan enterodiole, ED, to protect alveolar epithelial cells (A549) from oxidant-induced cell death was made. In these experiments, cells were pre-incubated withincreasing concentrations of ED (10, 50, 100, 200, 500 uM) and challenged with hydrogen peroxide (10 mM H2O2) for 1-6 hours. […] (FIG. 20).

Row | concentration at 16 weeks post XRT [1] [ng/mL] | Structure (SMILES) | cancer cell proliferation rate (MTS) (TC-1) | cancer cell proliferation rate (MTS) (LKR) | cancer cell proliferation rate (MTS) (LLC) | protection from tBHQ-induced cell death (PMVEC) | amount of proteasomal inhibition as compared to Lactacystin and MG 132 (proteasomal activity) | proteasomal inhibition compared to untreated cells (GFP expression) (proteasomal activity) | diabetes [2] | serum and pancreatic lipid peroxidation [2] | cell proliferation inhibition (MTS) (LKR cells) | nuclear Nrf2 levels (Nrf2) | HO-1 levels (HO-1) | GFP levels (proteasomal inhibition) (proteasomal activity; Example 15) | ROS generation (ROS generation in PMVEC) | protection from oxidant-induced cell death (LDH release) [3]
1 | 103 to 325 | O=C1OC[C@H](Cc2cccc(O)c2)[C@H]1Cc1cccc(O)c1 [EL, enterolactone] | significant decrease | significant decrease | significant decrease | up to 50% | no significant difference | significant increase |  |  |  |  |  |  |  | 
2 |  | COc1cc(C[C@@H](CO[C@@H]2O[C@H](CO)[C@@H](O)[C@H](O)[C@H]2O)[C@H](CO[C@@H]2O[C@H](CO)[C@@H](O)[C@H](O)[C@H]2O)Cc2ccc(O)c(OC)c2)ccc1O [SDG, secoisolariciresinol diglucoside] | significant decrease | significant decrease | significant decrease |  |  |  | prevention of diabetes | decrease |  |  |  |  |  | 
3 |  | CC(C)C[C@@H](C=O)NC(=O)[C@H](CC(C)C)NC(=O)[C@H](CC(C)C)NC(=O)OCc1ccccc1 [MG 132] (Cbz-Leu-Leu-Leu-aldehyde) |  |  |  |  |  |  |  |  | clear dose dependent response |  |  |  |  | 
4 | 14 to 405 | OC[C@H](Cc1cccc(O)c1)[C@H](CO)Cc1cccc(O)c1 [ED, enterodiol] | significant decrease | significant decrease | significant decrease |  | comparable to only Lactacystin, not MG 132 | significant amount of proteasomal inhibition |  |  |  | time-dependent increase | robust, time-dependent induction | increased GFP levels in a dose-dependent fashion | near complete abrogation | significantly protected

— patent US10045951B2, “Flaxseed lignan complex and its use thereof” (priority 2007, dated 2018)
